Test results as given in patent US11000454B2, “Dental composition” (DENTSPLY SIRONA inc., priority 2016, dated 2021).

Tests used:
[1] = Solubility of the compounds in tested solvents; type: physicochemical; parameters: key to solubility: “−” means NO solubility; “++” means VERY GOOD solubility
[2] = Refractive index (RI) measured at 20° C.; type: physicochemical
Experimental: (§1) (nD^20) and viscosity n measured at 23° C. (η23° C.) for compounds of formula (I) according to the invention denoted as (Ib) and (Ic), and comparative compounds (C1), (C2) and (C3). Compound (Ib) is N,N′-bisacryloyl-N,N′-bisallyl-[…], and compound (Ic) is N,N′-bisacryloyl-N,N′-bispropyl-1,4-but-2-endiamine. Comparative compound (C1) is N,N′-bisacetyl-N,N′-bisallyl-1,4-but-2-endiamine, (C2) is N,N′-bisacryloyl-N,N′-bisallyl-1,4-butandiamine, and C(3) is N,N′-bisacryloyl-N,N′-bispropyl-1,4-butandiamine. In FIG. 1, RI is depicted by dark grey bars, and the viscosity η by light grey hatched bars. For comparative compound (C1), no viscosity η was determined (indicated by “*”), since this compound is a solid.

[3] = Viscosity measured at 23° C.; type: physicochemical; conditions: viscosity at 23° C.
Experimental: as §1

[4] = Discoloration of the dental composition upon storage; type: physicochemical; conditions: storage at 50° C. for 30 days
Description: Discoloration upon storage and/or during photocuring may be determined according to ISO 7491:2000(en).

[5] = refractive index, preparative examples
[6] = refractive index at 20° C., tables

| Structure (SMILES) | solubility ([1]; EtOH) | solubility ([1]; acetone) | solubility ([1]; iPrOH) | solubility ([1]; methacrylic acid) | solubility ([1]; water) | nD^20 [2, 5] | melting point [°C] | nD^20 [2, 6] | η23° C. ([3]; tables) [mPa · s] | solubility in alcohols ([1]; alcohols like ethanol or isopropanol) | solubility ([1]; water/alcohol) | discoloration of the dental composition upon storage [4] | η23° C. ([3]; preparative examples) [Pa*s] |
| --- | --- | --- | --- | --- | --- | --- | --- | --- | --- | --- | --- | --- | --- |
| C=CCN(C/C=C/CN(CC=C)C(=O)C=C)C(=O)C=C [(Ia)] | ++ | ++***) | ++ | ++ | −**^) |  |  | 1.5290 | 338.0 |  |  |  |  |
| C=CCN(CCCCN(CC=C)C(=O)C=C)C(=O)C=C [(C2), N,N′-Bisacryloyl-N,N′-bisallyl-1,4-butandiamine] | − | ++ | − | ++ | − | 1.515 |  | 1.5150 | 382.0 | not soluble | − |  |  |
| C=CC(=O)N(C/C=C/CN(CCC)C(=O)C=C)CCC [(Ic), N,N′-Bisacryloyl-N,N′-bispropyl-1,4-but-2-endiamine] | ++ | ++ | ++ | ++ | − | 1.5095 |  | 1.5095 | 427.5 |  |  |  | 428±3 |
| C=CCN(C/C=C/C(C)N(CC=C)C(=O)C=C)C(=O)C=C (stereo not drawn) [Compound (Ib)] | ++ | ++ | ++ | ++ | − | 1.526 |  | 1.5260 | 409.0 |  |  |  |  |

Second part, the compound after the results:

| solubility ([1]; EtOH) | solubility ([1]; acetone) | solubility ([1]; iPrOH) | solubility ([1]; methacrylic acid) | solubility ([1]; water) | nD^20 [2, 5] | melting point [°C] | nD^20 [2, 6] | η23° C. ([3]; tables) [mPa · s] | solubility in alcohols ([1]; alcohols like ethanol or isopropanol) | solubility ([1]; water/alcohol) | discoloration of the dental composition upon storage [4] | η23° C. ([3]; preparative examples) [Pa*s] | Structure (SMILES) |
| --- | --- | --- | --- | --- | --- | --- | --- | --- | --- | --- | --- | --- | --- |
| ++ | ++ | ++ | ++ | − | 1.505 | 32 |  |  |  |  |  |  | C=CCN(C/C=C/CN(CC=C)C(C)=O)C(C)=O [(C1), N,N′-Bisacetyl-N,N′-bisallyl-1,4-but-2-endiamine] |
|  |  |  |  |  |  |  |  |  |  |  | no or almost no discoloration |  | CC(C)(C)c1cc(O)c(C(C)(C)C)cc1O [DTBHQ] |
| ++ | ++ | ++ | ++ | − | 1.515 |  | 1.5150 | 485.5 |  |  |  | 486±1 | C=CC(=O)N(CCC)CCCCN(CCC)C(=O)C=C [(C3), N,N′-Bisacryloyl-N,N′-bispropyl-1,4-butandiamine] |
